Tests used:
Test in all cases: spectrophotometric GSH-CDNB conjugation, nonlinear regression
Format in all cases: biochemical
Settings in all cases: GSH fixed 1.0 mM; 50 mM potassium phosphate pH 6.5; 25 °C; read-out: K mCDNB /
[1] = target: T1, SbGSTU1 (Salix babylonica, UniProt A0A4Y5R2M7)
T1 construct: gene GSTU1; full length, 6xHis-tag (pET30a), E. coli BL21 (DE3), Ni-Sepharose
Excerpt: spectrophotometric GSH-CDNB conjugation, nonlinear regression on SbGSTU1

[2] = target: T2, SbGSTU10 (Salix babylonica, UniProt A0A4Y5QZX3)
T2 construct: gene GSTU10; full length, 6xHis-tag (pET30a), E. coli BL21 (DE3), Ni-Sepharose
T2 sequence (A0A4Y5QZX3 1-220): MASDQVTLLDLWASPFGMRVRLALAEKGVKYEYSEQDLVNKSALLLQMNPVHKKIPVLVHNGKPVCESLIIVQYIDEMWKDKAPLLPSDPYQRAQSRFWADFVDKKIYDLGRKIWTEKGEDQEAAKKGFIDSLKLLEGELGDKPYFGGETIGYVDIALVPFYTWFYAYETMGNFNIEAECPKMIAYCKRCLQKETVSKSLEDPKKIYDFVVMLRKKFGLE
Excerpt: spectrophotometric GSH-CDNB conjugation, nonlinear regression on SbGSTU10

[3] = target: T3, SbGSTU12 (Salix babylonica, UniProt A0A4Y5R0C1)
T3 construct: gene GSTU12; full length, 6xHis-tag (pET30a), E. coli BL21 (DE3), Ni-Sepharose
T3 sequence (A0A4Y5R0C1 1-222): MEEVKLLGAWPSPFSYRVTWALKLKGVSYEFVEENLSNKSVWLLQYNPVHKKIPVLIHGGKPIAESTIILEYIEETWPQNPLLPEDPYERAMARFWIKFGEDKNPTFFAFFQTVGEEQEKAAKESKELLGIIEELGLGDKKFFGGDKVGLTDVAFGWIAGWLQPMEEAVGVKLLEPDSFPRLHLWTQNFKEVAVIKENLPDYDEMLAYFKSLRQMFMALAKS
Excerpt: spectrophotometric GSH-CDNB conjugation, nonlinear regression on SbGSTU12

[4] = target: T4, SbGSTU3 (Salix babylonica, UniProt A0A4Y5R0K8)
T4 construct: gene GSTU3; full length, 6xHis-tag (pET30a), E. coli BL21 (DE3), Ni-Sepharose
T4 sequence (A0A4Y5R0K8 1-220): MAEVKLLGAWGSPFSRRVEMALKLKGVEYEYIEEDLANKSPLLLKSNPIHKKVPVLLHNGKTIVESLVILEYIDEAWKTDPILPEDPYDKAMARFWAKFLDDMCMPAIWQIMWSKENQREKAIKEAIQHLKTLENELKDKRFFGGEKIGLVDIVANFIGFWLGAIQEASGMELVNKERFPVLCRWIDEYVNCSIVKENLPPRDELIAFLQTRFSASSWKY
Excerpt: spectrophotometric GSH-CDNB conjugation, nonlinear regression on SbGSTU3

[5] = target: T5, SbGSTU13 (Salix babylonica, UniProt A0A4Y5R0L5)
T5 construct: gene GSTU13; full length, 6xHis-tag (pET30a), E. coli BL21 (DE3), Ni-Sepharose
T5 sequence (A0A4Y5R0L5 1-222): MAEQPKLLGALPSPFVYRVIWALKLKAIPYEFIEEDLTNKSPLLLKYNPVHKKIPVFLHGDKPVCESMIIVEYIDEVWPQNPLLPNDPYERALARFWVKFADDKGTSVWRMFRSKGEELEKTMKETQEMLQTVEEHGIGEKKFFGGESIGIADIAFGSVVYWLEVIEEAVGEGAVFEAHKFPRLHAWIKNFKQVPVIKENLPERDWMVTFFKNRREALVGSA
Excerpt: spectrophotometric GSH-CDNB conjugation, nonlinear regression on SbGSTU13

[6] = target: T6, SbGSTU7 (Salix babylonica, UniProt A0A4Y5R087)
T6 construct: gene GSTU7; full length, 6xHis-tag (pET30a), E. coli BL21 (DE3), Ni-Sepharose
T6 sequence (A0A4Y5R087 1-219): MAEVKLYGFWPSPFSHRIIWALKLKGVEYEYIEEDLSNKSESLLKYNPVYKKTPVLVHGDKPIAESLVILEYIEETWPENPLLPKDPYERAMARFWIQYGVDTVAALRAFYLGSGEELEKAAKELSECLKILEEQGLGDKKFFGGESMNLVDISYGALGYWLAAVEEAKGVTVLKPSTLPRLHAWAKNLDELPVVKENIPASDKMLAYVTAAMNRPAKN
Excerpt: spectrophotometric GSH-CDNB conjugation, nonlinear regression on SbGSTU7

T1 sequence (A0A4Y5R2M7 1-219): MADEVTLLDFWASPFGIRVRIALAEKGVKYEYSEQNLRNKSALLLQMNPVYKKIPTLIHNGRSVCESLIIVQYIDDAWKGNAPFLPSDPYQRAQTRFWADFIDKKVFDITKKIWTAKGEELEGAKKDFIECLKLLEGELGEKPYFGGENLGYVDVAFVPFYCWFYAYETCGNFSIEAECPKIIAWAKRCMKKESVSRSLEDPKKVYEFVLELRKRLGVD

Q: For `O=[N+]([O-])c1ccc(Cl)c([N+](=O)[O-])c1` [CDNB, 1-chloro-2,4-dinitrobenzene], which Km [1] is on record?
A: 201 ± 4 µM

Q: And the Km [2]?
A: 156 ± 2 µM

Q: What about the Km [3] of the same molecule?
A: 2.14 ± 0.272 mM

Q: And the Km [4]?
A: 1 ± 0.033 mM

Q: And the Km [5]?
A: 1.27 ± 0.062 mM

Q: And the Km [6]?
A: 2.07 ± 0.165 mM
